Experimental data as given in PubChem BioAssay (NCI).
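A five-concentration, 48-hour dose response in 96-well plates underlies each endpoint, interpolated linearly between surrounding concentrations. GI50: concentration for 50% inhibition of growth. TGI: total growth inhibition.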

What was measured:
Experiment in all cases: NCI anticancer screen, dose series, 48 h
[1] = test system: HOP-92 NSCLC
[2] = test system: EKVX NSCLC
[3] = test system: SN12C renal
[4] = test system: UACC-257 melanoma
[5] = test system: OVCAR-8 ovarian
[6] = test system: HL-60(TB) leukemia
[7] = test system: SK-OV-3 ovarian
[8] = test system: OVCAR-3 ovarian
[9] = test system: RPMI-8226 leukemia
[10] = test system: OVCAR-4 ovarian
[11] = test system: IGROV1 ovarian
[12] = test system: HS 578T breast
[13] = test system: NCI-H23 lung
[14] = test system: SR leukemia
[15] = test system: SW-620 colon
[16] = test system: TK-10 renal
[17] = test system: HCT-15 colon
[18] = test system: DU-145 prostate
[19] = test system: HT29 colon
[20] = test system: SF-539 CNS
[21] = test system: SK-MEL-2 melanoma
[22] = test system: MDA-MB-435
[23] = test system: SNB-19 CNS
[24] = test system: OVCAR-5 ovarian
[25] = test system: NCI-H226 lung
[26] = test system: NCI-H460 lung
[27] = test system: SNB-75 CNS
[28] = test system: HOP-62 NSCLC
[29] = test system: SF-268 CNS
[30] = test system: HCC-2998 colon
[31] = test system: HCT-116 colon
[32] = test system: UACC-62 melanoma
[33] = test system: MDA-MB-231 breast
[34] = test system: LOX IMVI melanoma
[35] = test system: CAKI-1 renal
[36] = test system: SK-MEL-5 melanoma
[37] = test system: PC-3 prostate
[38] = test system: SK-MEL-28 melanoma
[39] = test system: MCF7 breast
[40] = test system: MOLT-4 leukemia
[41] = test system: ACHN renal
[42] = test system: K-562 leukemia
[43] = test system: COLO 205 colon
[44] = test system: 786-0 renal
[45] = test system: MALME-3M melanoma
[46] = test system: BT-549 breast
[47] = test system: A498 renal
[48] = test system: SF-295 CNS
[49] = test system: NCI/ADR-RES ovarian
[50] = test system: A549 NSCLC
[51] = test system: RXF 393 renal
[52] = test system: UO-31 renal
[53] = test system: U251 CNS
[54] = test system: CCRF-CEM leukemia
[55] = test system: KM12 colon
[56] = test system: NCI-H522 lung

`CN1C(=O)N(C)C2C1NN=c1s/c(=C\c3ccccc3F)c(=O)n12` (stereo unspecified) showed a GI50 [1] of 8.51 µM, a TGI [1] of over 100 µM and a GI50 [2] of 0.398 µM. The TGI [2] was over 100 µM, the GI50 [3] was 0.671 µM and the TGI [3] was over 100 µM. For the same compound, the GI50 [4] was over 100 µM, the TGI [4] was over 100 µM and the GI50 [5] was 0.516 µM. For the same compound, the TGI [5] was over 100 µM, the GI50 [6] was 0.224 µM and the TGI [6] was 0.633 µM. The GI50 [7] was 0.446 µM, the TGI [7] was over 100 µM and the GI50 [8] was 0.17 µM. For the same compound, the TGI [8] was 0.68 µM, the GI50 [9] was 0.364 µM and the TGI [9] was over 66.8 µM. It also gave a GI50 [10] of 1.41 µM, a TGI [10] of over 100 µM and a GI50 [11] of 0.633 µM. It also gave a TGI [11] of over 100 µM, a GI50 [12] of 0.287 µM and a TGI [12] of over 100 µM. It also gave a GI50 [13] of 0.534 µM, a TGI [13] of over 100 µM and a GI50 [14] of 0.093 µM. For the same compound, the TGI [14] was over 100 µM, the GI50 [15] was 0.296 µM and the TGI [15] was over 100 µM. For the same compound, the GI50 [16] was over 20.8 µM, the TGI [16] was over 100 µM and the GI50 [17] was 0.145 µM. The TGI [17] was over 100 µM, the GI50 [18] was 0.325 µM and the TGI [18] was 23.9 µM. It also gave a GI50 [19] of 0.312 µM, a TGI [19] of over 36.7 µM and a GI50 [20] of 0.217 µM. The TGI [20] was 0.639 µM, the GI50 [21] was 0.629 µM and the TGI [21] was over 100 µM. It also gave a GI50 [22] of 0.0387 µM, a TGI [22] of 0.184 µM and a GI50 [23] of 0.448 µM. For the same compound, the TGI [23] was over 100 µM, the GI50 [24] was 0.496 µM and the TGI [24] was over 100 µM. The GI50 [25] was 1.23 µM, the TGI [25] was over 100 µM and the GI50 [26] was 0.351 µM. For the same compound, the TGI [26] was over 100 µM, the GI50 [27] was 0.0807 µM and the TGI [27] was 0.547 µM. The GI50 [28] was 0.48 µM, the TGI [28] was over 100 µM and the GI50 [29] was 1.22 µM. It also gave a TGI [29] of over 100 µM, a GI50 [30] of 0.422 µM and a TGI [30] of over 100 µM. The GI50 [31] was 0.354 µM, the TGI [31] was over 56.6 µM and the GI50 [32] was 0.371 µM. The TGI [32] was over 100 µM, the GI50 [33] was 0.541 µM and the TGI [33] was over 41.6 µM. The GI50 [34] was 0.565 µM, the TGI [34] was over 100 µM and the GI50 [35] was 0.14 µM. It also gave a TGI [35] of over 100 µM, a GI50 [36] of 0.188 µM and a TGI [36] of 4.11 µM. It also gave a GI50 [37] of 0.296 µM, a TGI [37] of over 100 µM and a GI50 [38] of 5.75 µM. It also gave a TGI [38] of over 100 µM, a GI50 [39] of 0.069 µM and a TGI [39] of over 100 µM. For the same compound, the GI50 [40] was 0.52 µM, the TGI [40] was over 100 µM and the GI50 [41] was 0.684 µM. It also gave a TGI [41] of over 100 µM, a GI50 [42] of 0.117 µM and a TGI [42] of over 100 µM. For the same compound, the GI50 [43] was 0.328 µM, the TGI [43] was 1.43 µM and the GI50 [44] was 0.741 µM. For the same compound, the TGI [44] was over 100 µM, the GI50 [45] was 0.325 µM and the TGI [45] was over 100 µM. For the same compound, the GI50 [46] was 1.39 µM, the TGI [46] was over 100 µM and the GI50 [47] was 0.175 µM. For the same compound, the TGI [47] was 0.929 µM, the GI50 [48] was 0.186 µM and the TGI [48] was over 100 µM. The GI50 [49] was 0.229 µM, the TGI [49] was over 100 µM and the GI50 [50] was 0.439 µM. The TGI [50] was over 100 µM, the GI50 [51] was 0.159 µM and the TGI [51] was 0.491 µM. It also gave a GI50 [52] of 0.657 µM, a TGI [52] of over 100 µM and a GI50 [53] of 0.356 µM. The TGI [53] was over 100 µM, the GI50 [54] was 0.335 µM and the TGI [54] was over 100 µM. For the same compound, the GI50 [55] was 0.198 µM, the TGI [55] was over 60.2 µM and the GI50 [56] was 0.229 µM.
